# Laboratory results as given in paper PMC8315078, “Molecular imaging of fibroblast activation protein after myocardial infarction using the novel radiotracer [^68Ga]MHLL1” (Theranostics, 2021).
# pIC50: −log10 of the molar value.
# Experiments:
# [1] = target: T1, fibroblast activation protein (human FAP, hFAP) (Homo sapiens, UniProt Q12884); experiment: displacement of […]MHLL1 by cold compound in hFAP-transfected HT1080 cells (internalized activity); wild-type cells negative; type: cell-based
# T1 sequence (Q12884 1-760): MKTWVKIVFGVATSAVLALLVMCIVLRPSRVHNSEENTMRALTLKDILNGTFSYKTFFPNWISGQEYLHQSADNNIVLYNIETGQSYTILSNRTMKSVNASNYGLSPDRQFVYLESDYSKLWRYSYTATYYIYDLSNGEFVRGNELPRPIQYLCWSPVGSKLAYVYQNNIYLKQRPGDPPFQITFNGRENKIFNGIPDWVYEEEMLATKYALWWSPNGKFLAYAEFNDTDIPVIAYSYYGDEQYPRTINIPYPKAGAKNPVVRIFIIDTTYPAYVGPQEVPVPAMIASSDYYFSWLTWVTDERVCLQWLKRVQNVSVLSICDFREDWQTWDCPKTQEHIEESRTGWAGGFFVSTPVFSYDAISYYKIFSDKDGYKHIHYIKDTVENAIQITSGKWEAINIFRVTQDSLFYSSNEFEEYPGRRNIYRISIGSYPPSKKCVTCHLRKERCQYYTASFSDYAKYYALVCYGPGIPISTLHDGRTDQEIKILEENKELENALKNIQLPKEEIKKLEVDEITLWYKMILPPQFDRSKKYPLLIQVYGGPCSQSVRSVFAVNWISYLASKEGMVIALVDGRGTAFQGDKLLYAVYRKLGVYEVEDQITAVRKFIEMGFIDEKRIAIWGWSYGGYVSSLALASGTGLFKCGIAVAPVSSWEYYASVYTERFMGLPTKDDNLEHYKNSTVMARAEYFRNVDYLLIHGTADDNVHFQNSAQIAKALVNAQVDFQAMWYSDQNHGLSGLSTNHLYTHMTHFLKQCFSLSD
# [2] = target: fibroblast activation protein (murine FAP, mFAP) (Mus musculus, UniProt P97321)
# Chain of fibroblast activation protein (murine FAP, mFAP) (P97321 whole entry): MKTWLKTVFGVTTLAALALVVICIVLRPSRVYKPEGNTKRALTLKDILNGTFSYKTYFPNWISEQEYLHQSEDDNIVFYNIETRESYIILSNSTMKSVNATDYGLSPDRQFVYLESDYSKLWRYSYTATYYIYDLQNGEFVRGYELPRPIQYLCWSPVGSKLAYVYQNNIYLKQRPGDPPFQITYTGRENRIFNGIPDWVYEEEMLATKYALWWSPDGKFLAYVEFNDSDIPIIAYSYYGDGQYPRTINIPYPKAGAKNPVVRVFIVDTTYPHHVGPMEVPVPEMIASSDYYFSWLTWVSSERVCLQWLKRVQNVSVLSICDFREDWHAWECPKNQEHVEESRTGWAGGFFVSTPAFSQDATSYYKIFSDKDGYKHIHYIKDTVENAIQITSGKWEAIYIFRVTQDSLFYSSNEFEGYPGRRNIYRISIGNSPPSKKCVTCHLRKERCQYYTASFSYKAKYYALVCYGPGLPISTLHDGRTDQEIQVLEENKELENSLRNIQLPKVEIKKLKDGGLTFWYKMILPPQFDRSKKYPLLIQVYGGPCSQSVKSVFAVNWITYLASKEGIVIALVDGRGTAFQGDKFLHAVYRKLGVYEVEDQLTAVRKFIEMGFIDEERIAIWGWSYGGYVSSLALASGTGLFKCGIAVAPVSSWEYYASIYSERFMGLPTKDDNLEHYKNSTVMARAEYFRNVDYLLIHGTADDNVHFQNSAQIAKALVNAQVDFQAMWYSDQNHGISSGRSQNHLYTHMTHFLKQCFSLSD
structure (smiles),measurement,setting,value
"N#C[C@@H]1CCCN1C(=O)CNC(=S)Nc1ccc(CNC(=O)CCC2C(=O)[O][Ga]3[O]C(=O)CN4CCN(CCN2CC4)CC(=O)[O]3)cc1 (stereo partly drawn) [[^natGa]MHLL1, [^68Ga]Ga-2,2'-(7-(1-carboxy-4-((4-(3-(2-((S)-2-cyano-pyrrolidin-1-yl)-2-oxoethyl)thioureido)benzyl)amino)-4-oxobutyl)-1,4,7-triazonane-1,4-diyl)diacetic acid]",pIC50,[1],6.67
same,pIC50,[2],6.85
